For 26 compounds, IC50 results are on record in ChEMBL document CHEMBL1150390, “Identification of halosalicylamide derivatives as a novel class of allosteric inhibitors of HCV NS5B polymerase” (Bioorg Med Chem Lett, 2008).

Structures are written as SMILES.

By IC50 is commonly meant the concentration needed to halve the response being measured. Read a high IC50 as lower potency.

The subject of one assay is Hepatitis C virus. In words: Inhibition of HCV 1b NS5B polymerase. Also noted: species or system Hepatitis C virus subtype 1b.
Assay [1] can be described thus: Inhibition of HCV 1a NS5B polymerase. Details: species or system Hepatitis C virus subtype 1a.
Assay [2] in a line: Inhibition of HCV 2a NS5B polymerase. Also noted: species or system Hepatitis C virus subtype 2a.
The nature of assay [3]: Inhibition of HCV 2b NS5B polymerase. Also noted: species or system Hepatitis C virus subtype 2b.
In another assay the target is Genome polyprotein (Hepatitis C virus genotype 1b (isolate BK) (HCV), UniProt P26663). In words: Inhibition of HCV BK NS5B polymerase.
Assay [4] is described as follows: Inhibition of HCV 3a NS5B polymerase. Also noted: species or system Hepatitis C virus subtype 3a.

Genome polyprotein, sequence (P26663 2420-3010 limits assumed): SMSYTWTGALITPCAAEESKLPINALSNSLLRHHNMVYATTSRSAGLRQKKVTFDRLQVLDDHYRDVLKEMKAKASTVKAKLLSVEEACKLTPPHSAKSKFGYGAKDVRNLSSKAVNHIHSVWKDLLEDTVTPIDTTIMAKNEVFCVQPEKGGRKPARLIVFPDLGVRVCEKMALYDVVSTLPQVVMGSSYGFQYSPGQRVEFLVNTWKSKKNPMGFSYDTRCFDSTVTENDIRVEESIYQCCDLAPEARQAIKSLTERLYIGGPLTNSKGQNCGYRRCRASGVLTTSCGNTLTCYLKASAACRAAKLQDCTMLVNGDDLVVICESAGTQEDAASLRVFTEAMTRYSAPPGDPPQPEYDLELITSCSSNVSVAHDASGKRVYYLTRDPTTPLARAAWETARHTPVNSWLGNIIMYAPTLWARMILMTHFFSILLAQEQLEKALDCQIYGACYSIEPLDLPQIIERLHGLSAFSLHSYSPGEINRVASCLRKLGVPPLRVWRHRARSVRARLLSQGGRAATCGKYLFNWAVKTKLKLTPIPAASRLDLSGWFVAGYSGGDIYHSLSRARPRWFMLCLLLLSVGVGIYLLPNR

`O=C(Nc1ccc(Cl)cc1)c1cc(I)cc(I)c1O` showed an IC50 with Hepatitis C virus of 11 µM.

For `O=C(Nc1ccccc1)c1cc(I)cc(I)c1O`, in the assay on Hepatitis C virus, the IC50 worked out at 46 µM. In the case of `O=C(Nc1ccc(Br)cc1)c1cc(I)cc(I)c1O`, the concentration for half-maximal inhibition (IC50) in the assay on Hepatitis C virus is 10 µM. Compared with the last compound, the IC50 is about 4.6-fold lower. Regarding `O=C(Nc1ccc(F)cc1)c1cc(I)cc(I)c1O`, in the assay on Hepatitis C virus, the IC50 stood at 33 µM. Regarding `Cc1ccc(NC(=O)c2cc(I)cc(I)c2O)cc1`, in the assay with Hepatitis C virus, the IC50 amounted to 37 µM. `CN(C(=O)c1cc(I)cc(I)c1O)c1ccc(Cl)c(Cl)c1`: the 50% inhibitory concentration (IC50) with Hepatitis C virus is greater than 200 µM. Compound `COc1cc(Br)ccc1NC(=O)c1cc(Cl)cc(Cl)c1OC` came in with a concentration for half-maximal inhibition (IC50) with Hepatitis C virus greater than 200 µM. The compound `Cc1cc(NC(=O)c2cc(Cl)cc(Cl)c2O)ccc1Cl` had a concentration for half-maximal inhibition (IC50) with Hepatitis C virus of 9 µM. `Cc1cc(NC(=O)c2cc(Cl)cc(Cl)c2N)ccc1Cl`: half-maximal inhibition with Hepatitis C virus (IC50) was put at 108 µM. `O=C(Nc1cccc(Br)c1)c1cc(Br)cc(Br)c1O` displayed an IC50 with Hepatitis C virus of 6.9 µM. In turn, `Nc1c(Br)cc(Br)cc1C(=O)Nc1cccc(Br)c1` yielded an IC50 in the assay on Hepatitis C virus of 131 µM. Take `O=C(Nc1ccc(Oc2ccccc2)cc1)c1cc(I)cc(I)c1O`: the IC50 in the assay with Hepatitis C virus worked out at 5.6 µM. This IC50 is about 23-fold lower than that of the compound before.

In the assay on Hepatitis C virus, `Nc1ccc(NC(=O)c2cc(I)cc(I)c2O)cc1` registered a 50% inhibitory concentration (IC50) of 30 µM. This IC50 lies about 5.4-fold higher than the previous one. Same read-out and setting: the value for `O=C(Nc1ccc(O)cc1)c1cc(I)cc(I)c1O` was 54 µM. The same measure, in the same setting: the value for `COc1ccc(NC(=O)c2cc(I)cc(I)c2O)cc1` was 46 µM; that for `O=C(Nc1ccc(Nc2ccccc2)cc1)c1cc(I)cc(I)c1O` was 1.9 µM. Consider `Nc1c(Br)cc(Br)cc1C(=O)Nc1ccc(Br)cc1`, for which the half-inhibitory concentration (IC50) in the assay on Hepatitis C virus was 98 µM. This IC50 is about 52-fold higher than that of the compound before.

Consider `Oc1c(I)cc(I)cc1/C=N/c1ccc(Cl)cc1Cl`, for which, in the assay with Hepatitis C virus, inhibition was half-maximal at 8.8 µM (IC50). Same read-out and setting: the value for `COc1c(Cl)cc(Cl)cc1C(=O)Nc1ccc(Br)cc1` was greater than 200 µM; that for `O=C(Nc1ccc(Cl)cc1O)c1cc(I)cc(I)c1O` was 8.6 µM; that for `CN(C(=O)c1cc(Br)cc(Br)c1O)c1ccc(Cl)cc1` was 135 µM.

Turning to `CC(=O)Oc1c(I)cc(I)cc1C(=O)Nc1ccc(Cl)c(Cl)c1`, in the assay on Hepatitis C virus, the IC50 is greater than 200 µM. Same read-out and setting: the value for `Nc1c(Cl)cc(Cl)cc1C(=O)Nc1ccc(Cl)c(Cl)c1` was 102 µM.

For the compound `O=C(Nc1ccc(Cl)c(Cl)c1)c1cc(I)cc(I)c1O`, the concentration for half-maximal inhibition (IC50) in assay [1] is 5.7 µM; in assay [2], 16.2 µM; in assay [3], 17.3 µM; with Hepatitis C virus, 4.7 µM; on Genome polyprotein, 8.6 µM; in assay [4], 14.3 µM. `O=C(Nc1ccc(Cl)c(Cl)c1)c1cc(Cl)cc(Cl)c1O` [3,3',4',5-TETRACHLOROSALICYLANILIDE] registered an IC50 with Hepatitis C virus of 8.6 µM. Consider `O=C(Nc1ccc(Br)cc1)c1cc(Br)cc(Br)c1O` [TRIBROMSALAN], for which it took 6.7 µM to reach half-maximal inhibition in the assay with Hepatitis C virus (IC50).
